Source: patent US6391900B1, “Cytotoxic tris(oxazole)-containing macrolides” (Instituto Biomar S.A., priority 1998, dated 2002)

Columns and labels:
[1] = system: solid tumors like A-549, HT-29 and MEL-28; assay: in vitro antitumor selectivity across the cytotoxicity panel; format: cell-based, human; settings: solid tumor lines A-549, HT-29, MEL-28 compared with P-388
Procedure: (§1) A screening procedure has been carried out to determine and compare the antitumor activity of these compounds, using an adapted form of the method described by Bergeron et al. (Reference 5). The antitumor cells employed were P-388 (suspension culture of a lymphoid neoplasm from DBA/2 mouse), A-549 (monolayer culture of a human lung carcinoma), HT-29 (monolayer culture of a human colon carcinoma) and MEL-28 (monolayer culture of a human melanoma).
(§2) P-139 cells were seeded into 16 mm wells at 1×10^4 sells per well in 1 ml aliquots of MEM SFCS containing the indicated concentration of drug. A separate set of cultures without drug was seeded as control growth to ensure that cells remained in exponential phase of growth. All determinations were carried out in duplicate. After three days of incubation at 37° C., 10% CO2 in a 98% humid atmosphere, an approximately IC50 was determined by comparing the growth in wells with drug to the growth in wells control.
A-549, HT-29 and MEL-28 cells were seeded into 16 mm wells at 2×10^4 cells per well in 1 ml aliquots of MEM 10FCS containing the indicated concentration of drug. A separate set of cultures without drug was seeded as control growth to ensure that cells remained in exponential phase of growth. […] An approximately IC50 was determined by comparing the growth in wells with drug to the growth in wells control.

[2] = system: A-549 (monolayer culture of a human lung carcinoma); assay: in vitro cytotoxic assay, A-549 cells; format: cell-based; settings: A549, 72 h, three days of incubation, Crystal Violet staining, approximate IC50
Procedure: (§3) Cells were maintained in logarithmic phase of growth in Eagle's Minimum Essential Medium, with Earle's Balanced Salts, with 2.0 mM L-glutamine, with non-essential amino acids, without sodium bicarbonate EMEM/neaa); supplemented with 10% Fetal Calf Serum (FCS), 10^−2 M sodium bicarbonate and 0.1 g/l penicillin-G+streptomycin sulfate.
as §1
as §2, with “A-549, HT-29 and MEL-28” for “P-139”, “2×10^4 cells” for “1×10^4 sells”, “10FCS” for “SFCS”, “the wells were stained with 0.1% Crystal Violet. An” for “an”

[3] = system: MEL-28 (monolayer culture of a human melanoma); assay: in vitro cytotoxic assay, MEL-28 cells; format: cell-based; settings: SK-MEL-28, 72 h, three days of incubation, Crystal Violet staining, approximate IC50
Procedure: as §3, §1
as §2, with “A-549, HT-29 and MEL-28” for “P-139”, “2×10^4 cells” for “1×10^4 sells”, “10FCS” for “SFCS”, “the wells were stained with 0.1% Crystal Violet. An” for “an”

[4] = system: HT-29 (monolayer culture of a human colon carcinoma); assay: in vitro cytotoxic assay, HT-29 cells; format: cell-based; settings: 72 h, three days of incubation, Crystal Violet staining, approximate IC50
Procedure: as §3, §1
as §2, with “A-549, HT-29 and MEL-28” for “P-139”, “2×10^4 cells” for “1×10^4 sells”, “10FCS” for “SFCS”, “the wells were stained with 0.1% Crystal Violet. An” for “an”

[5] = system: P-388 (suspension culture of a lymphoid neoplasm from DBA/2 mouse); assay: in vitro cytotoxic assay, P-388 cells; format: cell-based; settings: P388, 72 h, three days of incubation, approximate IC50 by growth vs control wells
Procedure: as §3, §1, §2

COC(CC1OC(=O)CC(OC(N)=O)CC(C)CC(O)C(C)C(OC)c2coc(n2)-c2coc(n2)-c2coc(n2)/C=C/CC(OC)C1C)C(C)CCC(=O)C(C)C(OC)C(C)CC=O (centres unmarked) [TH-2]
in vitro antitumor selectivity for solid tumors [1]: in vitro antitumor selectivity for solid timors
IC50 [2]: 2 nM
IC50 [3]: 2 nM
IC50 [4]: 2 nM
IC50 [5]: 11 nM
